What was measured:
SULT1A1*1 [1] = target: T1, SULT1A1*1 (Homo sapiens, UniProt P50225); experiment: Substrate kinetics of recombinant SULT1A1*1; assay type: biochemical; conditions: 4 μM 4-nitrophenol, mean±SEM of nine, read-out: Apparent Km PAPS
T1 construct: made in house; host or cells: COS-1 cells, pCR3.1 vector, unpurified cytosol
Protocol: (§1) Res. Commun., 198:1119-1127 (1994).
(§2) Expression constructs for each of the common (frequencies≧1%) allozymes for SULT1A1 and SULT1A2 were used to transfect COS-1 cells. Selected biochemical and physical properties of the expressed enzymes were then determined. Those properties included apparent Km values for the two cosubstrates for the enzyme reaction (4-nitrophenol and PAPS); thermal stability; and sensitivity to inhibition by DCNP. The substrate kinetic experiments were performed in two steps. Initially a wide range of concentrations of 4-nitrophenol that varied over at least three orders of magnitude was tested, followed by detailed study of concentrations close to the apparent Km value for that allozyme. […] Data from these experiments were then used to construct double inverse plots that were used to calculate apparent Km values (Table 5).

SULT1A1*2 = SULT1A1*2 (Homo sapiens, UniProt P50225, R213H/V223M); experiment: Substrate kinetics of recombinant SULT1A1*2; assay type: biochemical; conditions: 4 μM 4-nitrophenol, mean±SEM of nine, read-out: Apparent Km PAPS
Sequence of SULT1A1*2 (P50225 whole entry R213H/V223M): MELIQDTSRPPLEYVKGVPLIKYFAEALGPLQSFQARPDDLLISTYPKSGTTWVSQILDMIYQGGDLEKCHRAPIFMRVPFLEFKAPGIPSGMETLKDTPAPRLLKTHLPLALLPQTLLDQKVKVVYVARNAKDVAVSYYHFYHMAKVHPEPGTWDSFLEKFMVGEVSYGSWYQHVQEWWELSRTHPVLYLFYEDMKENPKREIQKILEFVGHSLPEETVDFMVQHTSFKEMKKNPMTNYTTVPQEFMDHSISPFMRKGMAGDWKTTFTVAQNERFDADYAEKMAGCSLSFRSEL
Protocol: as §1, §2

SULT1A1*3 [2] = target: T2, SULT1A1*3 (Homo sapiens, UniProt P50225); experiment: Substrate kinetics of recombinant SULT1A1*3; assay type: biochemical; conditions: 4 μM 4-nitrophenol, mean±SEM of nine, read-out: Apparent Km PAPS
T2 construct: made in house; host or cells: COS-1 cells, pCR3.1 vector, unpurified cytosol
Protocol: as §1, §2

SULT1A2*1 [3] = target: T3, SULT1A2*1 (Homo sapiens, UniProt P50226); experiment: Substrate kinetics of recombinant SULT1A2*1; assay type: biochemical; conditions: 100 μM 4-nitrophenol, mean±SEM of nine
T3 construct: made in house; host or cells: COS-1 cells, pCR3.1 vector, unpurified cytosol
Protocol: as §1, §2

SULT1A2*2 [4] = target: T4, SULT1A2*2 (Homo sapiens, UniProt P50226, I7T/N235T); experiment: Substrate kinetics of recombinant SULT1A2*2; assay type: biochemical; conditions: mean±SEM of nine
T4 construct: made in house; host or cells: COS-1 cells, pCR3.1 vector, unpurified cytosol
T4 sequence (P50226 whole entry I7T/N235T): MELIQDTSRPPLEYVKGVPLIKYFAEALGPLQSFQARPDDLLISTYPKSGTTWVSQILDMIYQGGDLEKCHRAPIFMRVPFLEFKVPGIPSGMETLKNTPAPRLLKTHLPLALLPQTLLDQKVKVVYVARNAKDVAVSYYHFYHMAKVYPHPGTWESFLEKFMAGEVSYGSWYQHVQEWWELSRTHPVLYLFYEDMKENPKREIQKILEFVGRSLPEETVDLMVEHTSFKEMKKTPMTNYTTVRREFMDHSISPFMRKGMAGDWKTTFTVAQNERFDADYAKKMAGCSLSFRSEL
Protocol: as §1, §2

SULT1A2*3 [5] = target: T5, SULT1A2*3 (Homo sapiens, UniProt P50226, P19L); experiment: Substrate kinetics of recombinant SULT1A2*3; assay type: biochemical; conditions: 50 μM 4-nitrophenol, mean±SEM of nine, read-out: Apparent Km PAPS
T5 construct: made in house; host or cells: COS-1 cells, pCR3.1 vector, unpurified cytosol
T5 sequence (P50226 whole entry P19L): as the sequence (P50226 whole entry I7T/N235T) above, with T7I, P19L, T235N counted along it
Protocol: as §1, §2

SULT1A3 [6] = target: T6, SULT1A3 (Homo sapiens, UniProt P0DMM9); experiment: Substrate kinetics of recombinant SULT1A3; assay type: biochemical; conditions: 3.9 to 3000 μM 4-nitrophenol, mean±SEM of nine
T6 construct: made in house; host or cells: COS-1 cells, pCR3.1 vector, unpurified cytosol
T6 sequence (P0DMM9 whole entry): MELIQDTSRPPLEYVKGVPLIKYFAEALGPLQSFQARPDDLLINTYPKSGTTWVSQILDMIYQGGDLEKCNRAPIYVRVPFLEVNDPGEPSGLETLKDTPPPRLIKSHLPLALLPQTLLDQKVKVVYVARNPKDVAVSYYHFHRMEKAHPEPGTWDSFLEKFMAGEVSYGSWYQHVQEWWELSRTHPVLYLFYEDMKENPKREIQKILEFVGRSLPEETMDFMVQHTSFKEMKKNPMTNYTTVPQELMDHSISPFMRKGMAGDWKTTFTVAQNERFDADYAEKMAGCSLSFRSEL

SULT1A2 = conditions: 100 μM 4-nitrophenol; cytosol from six pooled liver samples; three attempts
Protocol: Human hepatic “surgical waste” tissue was obtained from 61 patients undergoing clinically-indicated hepatectomies or open hepatic biopsies and was stored at −80° C. These frozen hepatic tissue samples were homogenized in 5 mM potassium phosphate buffer, pH 6.5, and centrifuged at 100,000×g for 1 hr to obtain high-speed supernatant (HSS) cytosolic preparations. […] All tissue samples were obtained under guidelines approved by the Mayo Clinic Institutional Review Board.
Unless otherwise stated, concentrations of 4-nitrophenol and PAPS were 4 μM and 0.4 μM, respectively. […] Enzyme activity was expressed as nmoles of sulfate conjugated product formed per hr of incubation. Protein concentrations were measured by the dye-binding method of Bradford with bovine serum albumin (BSA) as a standard.
Therefore, 100 μM 4-nitrophenol was used as a substrate with cytosol from six pooled liver samples in an attempt to measure SULT1A2 activity.

SULT1A1*1 [7] = target: T1, SULT1A1*1; experiment: DCNP inhibition of recombinant SULT1A1*1 (COS-1 cell cytosol); assay type: biochemical; conditions: 4 μM 4-nitrophenol, mean±SEM of nine determinations
Protocol: as §1
(§3) Finally, sensitivity of the recombinant proteins to inhibition by DCNP was determined. Sixteen different concentrations of DCNP, ranging from 0.01 to 1000 μM, were tested with each recombinant allozyme.

SULT1A1*3 [8] = target: T2, SULT1A1*3; experiment: DCNP inhibition of recombinant SULT1A1*3 (COS-1 cell cytosol); assay type: biochemical; conditions: 4 μM 4-nitrophenol, mean±SEM of nine determinations
Protocol: as §1, §3

SULT1A2*1 [9] = target: T3, SULT1A2*1; experiment: DCNP inhibition of recombinant SULT1A2*1 (COS-1 cell cytosol); assay type: biochemical; conditions: 100 μM 4-nitrophenol, mean±SEM of nine determinations
Protocol: as §1, §3

SULT1A2*2 [10] = target: T4, SULT1A2*2; experiment: DCNP inhibition of recombinant SULT1A2*2 (COS-1 cell cytosol); assay type: biochemical; conditions: 3000 μM 4-nitrophenol, mean±SEM of nine determinations
Protocol: as §1, §3

SULT1A2*3 [11] = target: T5, SULT1A2*3; experiment: DCNP inhibition of recombinant SULT1A2*3 (COS-1 cell cytosol); assay type: biochemical; conditions: 50 μM 4-nitrophenol, mean±SEM of nine determinations
Protocol: as §1, §3

SULT1A3 [12] = target: T6, SULT1A3; experiment: DCNP inhibition of recombinant SULT1A3 (COS-1 cell cytosol); assay type: biochemical; conditions: 3000 μM 4-nitrophenol, mean±SEM of nine determinations
Protocol: as §1, §3

TS PST = conditions: thermostable phenol-preferring form; cited from earlier work
TL PST = TL PST (Homo sapiens, UniProt P0DMM9); conditions: thermolabile monoamine-preferring form; cited from earlier work
Sequence of TL PST (P0DMM9 whole entry): as above

Nc1ncnc2c1ncn2[C@@H]1O[C@H](COP(=O)(O)OS(=O)(=O)O)[C@@H](OP(=O)(O)O)[C@H]1O [PAPS, 3′-phosphoadenosine-5′-phosphosulfate]
Km (SULT1A1*1 [1]): 1.21 ± 0.02 µM
Km (SULT1A1*2): 0.98 ± 0.03 µM
Km (SULT1A1*3 [2]): 0.17 ± 0.02 µM
Apparent Km PAPS (SULT1A2*1 [3]): approximately an order of magnitude lower
Km (SULT1A2*1 [3]; read-out: Apparent Km PAPS): 0.05 ± 0.001 µM
Km (SULT1A2*2 [4]; 3000 μM 4-nitrophenol, read-out: Apparent Km PAPS): 0.5 ± 0.001 µM
Km (SULT1A2*3 [5]): 0.28 ± 0.006 µM

O=[N+]([O-])c1ccc(O)cc1 [4-nitrophenol]
Apparent Km 4-Nitrophenol (SULT1A2*2 [4]; 1.0 to 1000 μM 4-nitrophenol): very high
Apparent Km 4-Nitrophenol (SULT1A3 [6]): very high
SULT1A2 activity (sulfation of 4-nitrophenol) (SULT1A2): no activity was detected

O=[N+]([O-])c1cc(Cl)c(O)c(Cl)c1 [DCNP, 2,6-dichloro4-nitrophenol]
IC50 (SULT1A1*1 [7]): 1.44 ± 0.11 µM
IC50 (SULT1A1*3 [8]): 1.32 ± 0.27 µM
IC50 (SULT1A2*1 [9]): 6.94 ± 0.55 µM
IC50 (SULT1A2*2 [10]): 44.4 ± 1.5 µM
DCNP Inhibition IC50 (SULT1A2*3 [11]): most
IC50 (SULT1A2*3 [11]): 0.97 ± 0.001 µM
DCNP Inhibition IC50 (SULT1A3 [12]): least sensitive to inhibition
IC50 (SULT1A3 [12]): 86.9 ± 6 µM
sensitivity to inhibition by DCNP (TS PST): sensitive to inhibition
sensitivity to inhibition by DCNP (TL PST): relatively insensitive
